Data reported in US8092020B2 (priority 2002, dated 2012).

Columns and labels:
Sprague-Dawley rat [1] = details: in vivo
Hemoglobin (Hgb) = Hemoglobin (Hgb) (Homo sapiens, UniProt P68871+P69905); details: cited from earlier work
Sprague-Dawley rat [2] = details: in vivo, ip
Sprague-Dawley rat [3] = details: in vivo, ip; remark: listed apart in the source

Sequence of Hemoglobin (Hgb) (P68871 2-147): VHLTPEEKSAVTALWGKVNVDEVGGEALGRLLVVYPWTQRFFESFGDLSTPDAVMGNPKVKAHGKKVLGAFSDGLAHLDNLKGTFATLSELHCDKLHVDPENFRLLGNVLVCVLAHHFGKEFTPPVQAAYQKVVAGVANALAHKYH
Sequence of Hemoglobin (Hgb) (P69905 2-142): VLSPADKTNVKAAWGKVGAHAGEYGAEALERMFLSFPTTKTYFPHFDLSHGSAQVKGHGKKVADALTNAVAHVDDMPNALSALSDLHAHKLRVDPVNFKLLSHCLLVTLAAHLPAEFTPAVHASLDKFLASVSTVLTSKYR

Compound	concentration causing significant changes in both arterial and venous coloration (Sprague-Dawley rat [1]) [ppm]	extrapolated EC50 for fundal artery coloration changes (Sprague-Dawley rat [1]) [ppm]	lowest level with statistically significant arterial coloration changes (p<0.05) (Sprague-Dawley rat [1]) [ppm]	maximal observed change in arterial coloration in all animals (Sprague-Dawley rat [1]) [%]	near maximal change in arterial coloration in animals which did not expire (Sprague-Dawley rat [1]) [%]	affinity of Hgb for CO relative to that for oxygen (Hemoglobin (Hgb))	time to animal expiration post-injection (Sprague-Dawley rat [2])	lowest dose with statistically significant decreases in the pupillary light reflex (p<0.05) (Sprague-Dawley rat [3]) [µg/kg]
[C-]#[O+] [CO, Carbon monoxide]	≥ 500	289±37	250	38.5	92.3	200-250 times greater	–	–
botulinum toxin	–	–	–	–	–	–	at least 14 hours	1e-05
